In US10941384B2, “Compositions and methods for promoting the generation of endocrine cells” (President and Fellows of Harvard College, priority 2013, dated 2021):
Values belong to the compound of their own block, whether it stands above or below them.

Legend:
[1] = test system: INS, GCG and SST transcripts (H1-derived pancreatic progenitors); assay: qRT-PCR of endocrine hormone transcripts (INS, GCG, SST); assay type: cell-based, human; settings: 3 day treatment
From the text: FIGS. 3A-3D show PKC agonists block the formation of insulin-expressing cells. […] Wells were stained for insulin and cell number counted in representative portions of the well by the Cellomics high content screening system. Error bars represent s.d. Two-tailed T-test p<0.05. […] Endocrine induction is blocked by PKC agonist TPB and reversed by Bis1. […] P<0.001. The decrease in INS and GCG expression due to TPB treatment is reversed by BisI. […] P<0.001.
H1-derived pancreatic progenitors were treated for 3 days with DMSO or 3 μM BisI. qRT-PCR for INS, GCG and SST performed and shown as fold change over DMSO control.

[2] = test system: Human C-peptide / insulin-expressing cells (H1-derived pancreatic progenitors); assay: High-content screen 2 and dose response: insulin-expressing cells by immunofluorescence (Cellomics); assay type: cell-based; settings: for auto-fluorescence and toxicity in dose-curve measurements: at 6.75 M and 27 M
Method: hESC culture and differentiation. Protocol 2. Human ESCs were routinely cultured on hESC-certified matrigel (BD Biosciences) in mouse embryonic fibroblast conditioned hES media (MEF-CM). MEF-CM media was produced by conditioning hESC media for […] on a confluent layer of mouse embryonic fibroblasts and subsequently adding 20 ng/ml bFGF (Invitrogen). hES media was composed of DMEM/F12 (GIBCO) media supplemented with 20% KnockOut Serum Replacement (GIBCO), 2 mM Lglutamine (L-Glu, GIBCO), 1.1 mM 2-mercaptoethanol (GIBCO), 1 mM nonessential amino acids (GIBCO), 1× penicillin/strepto-mycin (P/S,GIBCO). Cells were passaged at the ratio of 1:6-1:20 every 4-7 days using TrypLE Express (Invitrogen).
To initiate differentiation the cells were dissociated using TrypLE Express to single cells and seeded at 150,000 cell/cm2 onto 1:30 dilution of growth factor reduced matrigel (BD Biosciences) in DMEM/F12 in MEF-CM media with 10 μM Y27632 (StemGent). Two days following seeding the differentiation was started. Cells were exposed to RPMI 1640 (Invitrogen) supplemented with 2% reagent grade BSA (Proliant) and 20 ng/ml human Wnt3a (R&D Systems)+100 ng/ml rhActivinA (R&D Systems)+8 ng/ml bFGF (Invitrogen) for the first day (stage 1.1). During day 2 and 3 the dayl media was used with the exception of Wnt3a (stage 1.2). During days 4-5 cells were treated with RPMI+2% BSA+50 ng/ml FGF7 (Peprotech) (stage 2). For days 6-9 cells were treated with DMEM-HG (Invitrogen)+0.1% Albumax BSA (Invitrogen)+1:200 ITS-X (Invitrogen)+50 ng/ml FGF7 (Peprotech)+2 μM RA (Sigma)+0.25 μM SANT-1 (Sigma)+20 ng/ml rhActivinA (R&D Systems)+100 ng/ml rhNoggin (R&D Systems) (stage 3). During days 10-12 cells were treated with DMEM-HG (Invitrogen)+0.1% Albumax BSA (Invitrogen)+1:200 ITS-X (Invitrogen)+100 ng/ml rhNoggin (R&D Systems)+0.25 μM SANT-1 (Sigma)+100 nM PDBu (EMD Biosciences) (stage 4). During days 13-15 cells were treated with DMEM-HG (Invitrogen)+0.1% Albumax BSA (Invitrogen)+1:200 ITS-X (Invitrogen)+100 ng/ml rhNoggin (R&D Systems)+1 μM Alk5 inhibitor (Axxora) (stage 5). PKC inhibitor Bisindolylmaleimide I (VWR) was added during stage 5.
High-content screen 2. The compound libraries used for this study: 400 compounds, including bioactive molecules, natural products, and 400 compounds that are known modulators of development or signaling pathways. For the chemical screen the day 8 cells were dispersed into single cells, using TrypLE, and replated at 150,000 cells/well of a 96 well plate in the presence of stage 3 media and 10 μM Y27632. Compounds were added to the wells on day 10 in stage 4 media, then again on days 12 and 14 in stage 5 media. Media was changed every other day suing the treatment. Cells were fixed using 4% paraformaldehyde (PFA, Sigma) on day 15 and stained using mouse antiglucagon and rabbit anti-c-peptide antibodies.
Screen 2: Immunostaining. Following 4% PFA fixation, cells were 3×5 min washed in PBS and blocked with 10% donkey serum (Jackson Immunoresearch) in PBS/0.3% Triton X. Primary antibodies were incubated overnight at 4 C. Secondary antibodies were incubated for 1 hr at room temperature. […]

[3] = test system: HUES8 pancreatic progenitors; assay: Insulin cell number in HUES8 pancreatic progenitors in the presence of Noggin and Alk5 inhibitors; assay type: cell-based, human; settings: HUES8, 6 days, in the presence of Noggin and Alk5 inhibitor, versus DMSO
From the text: FIGS. 1A-1K show high-content screens to increase the number of NGN3-expressing and insulin-expressing cells. FIG. 1A is a schematic showing the stepwise differentiation from hESCs to pancreatic endocrine cells. DE, definitive endoderm; PP, pancreatic progenitor; EP, endocrine progenitor; EN, endocrine cells. Scheme of high-content screen beginning with a population of cells that have differentiated into pancreatic progenitors. FIGS. 1B and 1F are schematic diagrams showing the method of high-content screen, which begins with a population of cells that have differentiated into pancreatic progenitors. FIGS. 1C and 1G show the chemical structures of a PKCβ inhibotor and Bisindolylmaleimide I compound identified from the screen. FIGS. 1D and 1H show an efficacy curve of the hit compounds. […] The hit compounds effect on HUES 8-pancreatic progenitor population. After 14 d of differentiation, the HUES 8-pancreatic progenitor populations were treated with 10 M PKCβ inhibitor for four days and then stained with NGN 3 antibody (green). NGN3, neurogenin 3. Scale bar is 100 m. […] Percentage of insulin-positive cells with s.d. […] The percentage of NGN3^+ cells was analyzed with the Cellomics high content screening system (Thermo Scientific). […] Insulin cell number with was counted over the same area in different wells. […]

Compound: CC(C)[C@H]1C(=O)N[C@H](CO)Cc2cc(NC(=O)/C=C/C=C/c3ccc(C(F)(F)F)cc3)ccc2N1C [TPB, (2S,5S)-(E,E)-8-(5-(4-(trifluoromethyl)phenyl)-2,4-pentadienoylamino)benzolactam]
expression of endocrine hormones insulin and glucagon ([1]; 5 M TPB): decrease
effect on endocrine induction by Alk5 inhibitor (INS and GCG transcripts) ([1]; TPB combined with Alk5 inhibitor): sufficient to block the effect of Alk5 inhibitors on endocrine induction

Compound: CCCC(=O)O[C@@H]1[C@@H](C)[C@@]2(O)[C@@H](C=C(CO)C[C@]3(O)C(=O)C(C)=C[C@@H]23)[C@@H]2C(C)(C)[C@]12OC(=O)CCC [PdBu, phorbol 12,13-dibutyrate]
decline in endocrine differentiation, number of insulin+ cells ([2]; three-day treatment of H1-derived pancreatic progenitors (FIG. 3A: 1 M, 6 days)): 3.7 fold

EC50 ([2]; Homo sapiens, H1, with Noggin and Alk5 inhibitor, FIG. 1H, read-out: EC50, total number of insulin-expressing cells): 848 nM
Compound: CN(C)CCCn1cc(C2=C(c3c[nH]c4ccccc34)C(=O)NC2=O)c2ccccc21 [BisI, Bisindolylmaleimide I]
increase of the numbers of insulin-expressing cells [3]: up to 7.5 fold
insulin-expressing cells ([2]; 1 M BisI, 6 days, DMSO-treated controls 0.9 0.1%): up to 2.7 0.8%
auto-fluorescence and toxicity in dose-curve measurements [2]: Significant auto-fluorescence and toxicity
auto-fluorescence and toxicity in dose-curve measurements ([2]; listed as Bisindolylmaleimide I): considerable auto-fluorescence and toxicity
effect of TPB on INS and GCG expression in the presence of BisI ([1]; 3 M BisI + 5 M TPB): reversed
